Patent US6875851B1 (priority 1999, dated 2005)
Several values for one entry are separate records, joined by “and”; a condition that tells them apart may be missing. Equal values may be shown once. Entries after “also recorded” stand apart in the source; their conditions may differ. Read-outs that look alike come from different tables or passages of the source. Where no end group is shown, it is not given here. [ ]: non-standard residue; d: D form. The star is where a group is joined. pNA = O=[N+]([O-])c1ccc(N*)cc1; Cbz = O=C(OCc1ccccc1)*

What was measured:
PTP-A [1] = format: biochemical, P. gingivalis; conditions: for Residual activity of PTP-A, %: pH 7.6
DPP IV [2] = format: biochemical, P. gingivalis; conditions: pH 7.6
P. gingivalis = format: cell-based; conditions: for P. gingivalis growth (OD600): 37° C.
PTP-A [3] = format: biochemical, P. gingivalis; conditions: enzyme:substrate 1:100, 3 hours or 24 hours, 200 mM HEPES, pH 7.5, 37° C.; for Cleavage site mediated by PTP-A: 1 μg PTP-A
PTP-A [4] = format: biochemical, P. gingivalis; conditions: 1 mM substrate, 0.2 M HEPES, pH 7.5 at 37° C.
Target sequence in this assay (Q7MUW6 81-732 limits assumed): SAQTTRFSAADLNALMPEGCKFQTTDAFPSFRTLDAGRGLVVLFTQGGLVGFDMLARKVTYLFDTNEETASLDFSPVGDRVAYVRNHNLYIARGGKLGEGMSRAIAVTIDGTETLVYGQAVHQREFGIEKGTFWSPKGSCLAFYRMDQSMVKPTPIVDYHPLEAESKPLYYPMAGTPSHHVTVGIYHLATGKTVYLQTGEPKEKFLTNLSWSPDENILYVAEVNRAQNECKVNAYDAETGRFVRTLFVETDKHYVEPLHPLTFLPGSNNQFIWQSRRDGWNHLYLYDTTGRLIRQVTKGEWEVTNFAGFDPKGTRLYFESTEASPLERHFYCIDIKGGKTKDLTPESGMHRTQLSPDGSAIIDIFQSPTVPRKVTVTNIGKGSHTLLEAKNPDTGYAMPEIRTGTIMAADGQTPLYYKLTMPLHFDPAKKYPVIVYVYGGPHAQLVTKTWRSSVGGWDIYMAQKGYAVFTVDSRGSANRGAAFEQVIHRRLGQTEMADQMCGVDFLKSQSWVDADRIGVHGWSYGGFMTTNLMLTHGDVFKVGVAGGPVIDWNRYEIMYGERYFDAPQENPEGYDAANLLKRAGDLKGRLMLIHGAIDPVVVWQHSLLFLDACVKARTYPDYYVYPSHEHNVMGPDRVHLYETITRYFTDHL

DPP IV [5] = assay: Cleavage specificity of DPP IV on synthetic peptides; format: biochemical, P. gingivalis; conditions: for Cleavage site mediated by DPP IV: same conditions as those used for PTP-A
Method: Enzyme Specificity—Peptides were incubated with 1 μg PTP-A at an enzyme:substrate molar ratio of 1:100 for 3 hours or 24 hours in 50 μl of 200 mM HEPES, pH 7.5, at 37° C., and the reaction stopped by acidification with trifluoroacetic acid. The samples were then subjected to reverse-phase high pressure liquid chromatography using a μBondapak C-18 column (3.9×300 mm) (Waters, Millford, Mass.) and an acetonitrile gradient (0-80% in 0.075% trifluoroacetic acid in 50 min). Each peak, detected at 220 nm, was collected, lyophilized, redissolved in 50% (volume/volume) methanol, 0.1% acetic acid and subjected to analysis by mass spectrometry.
Mass Spectrometry—A Finnigan MAT 95S, sector mass spectrometer (Finnigan MAT, Bremen, Germany) equipped with an electrospray source (ESI) was used operated essentially as described previously (Stenfors, C., et al., (1997) J. Biol. Chem. 272, 5747-5751). Peptides were identified by fitting of the obtained spectra to specific sequences using an Internet application program MsFit available at http://falcon.ludwig.ucl.ac.uk/msfit.html.

PTP-A [6] = format: biochemical, P. gingivalis

Molecule: c1cnc2c(c1)ccc1cccnc12 [1,10-orthophenanthroline]
- Residual activity of PTP-A, % (PTP-A [1]): 93% and 100%
- Residual activity of DPP IV, % (DPP IV [2]): 100%

Molecule: O=c1oc(Cl)c(Cl)c2ccccc12 [3,4-dichloroisocoumarin]
- Growth of P. gingivalis (P. gingivalis): inhibits growth
- Effect on PTP-A amidolytic activity (in words) (PTP-A [1]): only a poor inhibitor
- Residual activity of PTP-A, % (PTP-A [1]): 200%
- Residual activity of DPP IV, % (DPP IV [2]): 100%

Molecule: O=C(O)CN(CCN(CC(=O)O)CC(=O)O)CC(=O)O [EDTA]
- Residual activity of PTP-A, % (PTP-A [1]): 100%
- Residual activity of DPP IV, % (DPP IV [2]): 100%

Molecule: NC(=O)CI [Iodoacetamide]
- Effect on PTP-A amidolytic activity (in words) (PTP-A [1]): stimulated enzyme amidolytic activity about two-fold
- Residual activity of PTP-A, % (PTP-A [1]): 100%
- Residual activity of DPP IV, % (DPP IV [2]): 100%

Molecule: CC(=O)N[C@@H](CC(C)C)C(=O)N[C@@H](CC(C)C)C(=O)N[C@H](C=O)CCCNC(=N)N [Leupeptin]
- Effect on PTP-A amidolytic activity (in words) (PTP-A [1]): no effect at all
- Residual activity of PTP-A, % (PTP-A [1]): 100%
- Residual activity of DPP IV, % (DPP IV [2]): 20%

Molecule: CCN1C(=O)C=CC1=O [N-Ethylmaleimide]
- Effect on PTP-A amidolytic activity (in words) (PTP-A [1]): not
- Residual activity of PTP-A, % (PTP-A [1]): 98%
- Residual activity of DPP IV, % (DPP IV [2]): 100%

Molecule: Cl.NCCc1ccc(S(=O)(=O)F)cc1 [PEFABLOC SC, 4-(2-aminoethyl)-benzenesulfonyl-fluoride hydrochloride]
- P. gingivalis growth (OD600) (P. gingivalis; Pefabloc added at 0.5 mg/ml when the optical density began to increase): decreased growth
- P. gingivalis growth (OD600) (P. gingivalis; Pefabloc added at 2.0 mg/ml when the optical density began to increase): decreased growth
- Growth of P. gingivalis (P. gingivalis; treatment of cultures in lagphase and early logarithmic growth): inhibits growth
- Effect on PTP-A amidolytic activity (in words) (PTP-A [1]): total loss of activity
- Residual activity of PTP-A, % (PTP-A [1]): 56%
- Residual activity of DPP IV, % (DPP IV [2]): 100%

Molecule: O=S(=O)(F)Cc1ccccc1 [Phenylmethanesulfonyl fluoride]
- Effect on PTP-A amidolytic activity (in words) (PTP-A [1]): no effect at all

Molecule: Ac-Val-Pro-Pro-Gly-Glu-Asp-Ser-Lys (Ac-VPPGEDSK) [Peptide 9]
- Cleavage of peptide by PTP-A (in words) (PTP-A [3]): resistance to enzymatic hydrolysis

Molecule: Cbz-Ala-Pro-pNA
- Hydrolysis of chromogenic substrate by PTP-A (PTP-A [4]): only H-Ala-Phe-Pro-pNA was hydrolyzed

Molecule: Cbz-Gly-Pro-pNA
- Hydrolysis of chromogenic substrate by PTP-A (PTP-A [4]): only H-Ala-Phe-Pro-pNA was hydrolyzed

Molecule: H-Ala-Arg-Pro-↓-Ala-D-Lys-amide (H-ARPA[dK]-NH2; SMILES C[C@H](N)C(=O)N[C@@H](CCCNC(=N)N)C(=O)N1CCC[C@H]1C(=O)N[C@@H](C)C(=O)N[C@H](CCCCN)C(N)=O) [Peptide 12]
- Cleavage site mediated by PTP-A (PTP-A [3]): H-Ala-Arg-Pro-↓-Ala-D-Lys-amide

Molecule: H-Ala-Phe-Pro-pNA
- Hydrolysis of chromogenic substrate by PTP-A (PTP-A [4]): hydrolyzed

Molecule: H-Ala-Pro-↑-Val-Arg-Ser-Leu-Asn-Cys-Thr-Leu-Arg-Asp-Ser-Gln-Gln-Lys (APVRSLNCTLRDSQQK) [Peptide 24]
- Cleavage site mediated by DPP IV (DPP IV [5]): H-Ala-Pro-↑-Val-Arg-Ser-Leu-Asn-Cys-

Molecule: H-Arg-Gly-Pro-↓-Phe-Pro-Ile (RGPFPI) [Peptide 11]
- Cleavage site mediated by PTP-A (PTP-A [3]): H-Arg-Gly-Pro-↓-Phe-Pro-Ile

Molecule: H-Arg-His-Pro-↓-Lys-Tyr-Lys-Thr-Glu-Leu (RHPKYKTEL) [Peptide 14]
- Cleavage site mediated by PTP-A (PTP-A [3]): H-Arg-His-Pro-↓-Lys-Tyr-Lys-Thr-Glu-Leu

Molecule: H-Arg-Pro-Pro-↓-Gly-Phe (RPPGF) [Peptide 2]
- Cleavage site mediated by PTP-A (PTP-A [3]): H-Arg-Pro-Pro-↓-Gly-Phe

Molecule: H-Arg-Pro-Pro-↓-Gly-Phe-Ser-Pro-Phe-Arg (RPPGFSPFR) [Peptide 1]
- Cleavage site mediated by PTP-A (PTP-A [3]): H-Arg-Pro-Pro-↓-Gly-Phe-Ser-Pro-Phe-Arg

Molecule: H-Arg-Pro-↑-Lys-Pro-↑-Gln-Gln-Phe-Phe-Gly-Leu-Met-NH2 (H-RPKPQQFFGLM-NH2) [Peptide 6]
- Cleavage by DPP IV (in words) (DPP IV [5]): found to cleave
- Cleavage site mediated by DPP IV (DPP IV [5]): Pro-↑-Lys; also recorded: Pro-↑-Gln

Molecule: H-Gly-Pro-pNA
- Hydrolysis of chromogenic substrate by PTP-A (PTP-A [4]): only H-Ala-Phe-Pro-pNA was hydrolyzed

Molecule: H-Gly-Val-Pro-↓-Lys-Thr-His-Leu-Glu-Leu (GVPKTHLEL) [Peptide 15]
- Cleavage site mediated by PTP-A (PTP-A [3]): H-Gly-Val-Pro-↓-Lys-Thr-His-Leu-Glu-Leu

Molecule: H-Leu-Pro-↑-Asp-Leu-Asp-Ser-Ser-Leu-Ala-Ser-Ile-Gln-Glu-Leu-Leu-Ser-Pro-Gln-Glu-Pro-Pro-Arg-Pro-Pro-Glu-Ala (LPDLDSSLASIQELLSPQEPPRPPEA) [Peptide 20]
- Cleavage by DPP IV (in words) (DPP IV [5]): found to cleave
- Cleavage site mediated by DPP IV (DPP IV [5]): H-Leu-Pro-↑-Asp-Leu-Asp-Ser-Ser-Leu-Ala-

Molecule: H-Lys-Arg-Pro-Pro-Gly-Phe-Ser-Pro-Phe-Arg (KRPPGFSPFR; printed: Lys-Arg-Pro-Pro-Gly-Phe-Ser-Pro-Phe-Arg) [Peptide 3]
- Cleavage of peptide by PTP-A (in words) (PTP-A [3]): significant exception

Molecule: H-Pro-Asn-Pro-↓-Asn-Gln-Gly-Asn-Phe-Ile (PNPNQGNFI) [Peptide 13]
- Cleavage site mediated by PTP-A (PTP-A [3]): H-Pro-Asn-Pro-↓-Asn-Gln-Gly-Asn-Phe-Ile

Molecule: H-Pro-pNA
- Hydrolysis of chromogenic substrate by PTP-A (PTP-A [4]): only H-Ala-Phe-Pro-pNA was hydrolyzed

Molecule: H-Ser-Pro-↑-Tyr-Ser-Ser-Asp-Thr-Thr (SPYSSDTT) [Peptide 23]
- Cleavage site mediated by DPP IV (DPP IV [5]): H-Ser-Pro-↑-Tyr-Ser-Ser-Asp-Thr-Thr

Molecule: H-Val-Glu-Pro-↓-Ile-Pro-Tyr (VEPIPY) [Peptide 10]
- Cleavage site mediated by PTP-A (PTP-A [3]): H-Val-Glu-Pro-↓-Ile-Pro-Tyr

Molecule: H-Val-Pro-Pro-↓-Gly-Glu-Asp-Ser-Lys (VPPGEDSK) [Peptide 8]
- Cleavage site mediated by PTP-A (PTP-A [3]): H-Val-Pro-Pro-↓-Gly-Glu-Asp-Ser-Lys

Molecule: H-Val-Pro-Pro-↓-Gly-Glu-Asp-Ser-Lys-Glu-Val-Ala-Ala-Pro-His-Arg-Gln (VPPGEDSKEVAAPHRQ) [Peptide 7]
- Cleavage site mediated by PTP-A (PTP-A [3]): H-Val-Pro-Pro-↓-Gly-Glu-Asp-Ser-Lys-Glu-

Molecule: H-YRPPGFSPFR [Peptide 4]
- Cleavage of peptide by PTP-A (in words) (PTP-A [3]): significant exception

Molecule: IGVHGWXYGGFMTINL [SEQ ID NO:24]
- Cleavage by DPP IV (in words) (DPP IV [5]): found to cleave

Molecule: NH2-SAQTTRFSAADLNALMP (H-SAQTTRFSAADLNALMP; listed as Porphyromonas gingivalis) [SEQ ID NO:23]
- Cleavage by DPP IV (in words) (DPP IV [5]): found to cleave

Molecule: Val-Pro
- Residual activity of PTP-A, % (PTP-A [1]): 100%
- Residual activity of DPP IV, % (DPP IV [2]): 1%

Molecule: albumin
- Cleavage of protein by PTP-A (in words) (PTP-A [6]): absence of any proteolytic activity

Molecule: gelatin
- Cleavage of protein by PTP-A (in words) (PTP-A [6]): absence of any proteolytic activity

Molecule: interleukin 6: protein substrate
- Cleavage of protein by PTP-A (in words) (PTP-A [6]): able to cleave a tripeptide

Molecule: α1-proteinase inhibitor: Human plasma inhibitor
- Effect on PTP-A amidolytic activity (in words) (PTP-A [1]): did not affect the enzyme activity
- Cleavage of protein by PTP-A (in words) (PTP-A [6]): nor were they cleaved by PTP-A
